According to US20060069132A1, “Azolecarboxamide herbicides” (priority 2004, published 2006):

Key:
[1] = tested on: cocklebur; assay: Test B pre-/postemergence herbicide test; assay type: in vivo, Xanthium strumarium
How it was run: (§1)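 Visual rating, 0 (no effect) to 100 (complete control), versus untreated controls after 13–15 d in greenhouse. Pre- and postemergence applications (postemergence plants 2–18 cm, 1–4 leaves); flooded paddy arm at 2-leaf stage. Compounds in non-phytotoxic solvent plus surfactant.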

[2] = tested on: wild oat; assay: Test B postemergence herbicide test; assay type: in vivo, Avena fatua
How it was run: (§2)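 Plants grow to 1- to 4-leaf stage (2–18 cm) for postemergence spraying, or to 2-leaf stage for the paddy test. Formulated compound is applied. Greenhouse holding lasts 13–15 days. Response is scored visually relative to controls, 0 no effect to 100 complete control; a dash means no result.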

[3] = tested on: ducksalad; assay: Test B flooded paddy test; assay type: in vivo, Heteranthera limosa; conditions: 125 g ai/ha, scale 0 to 100 (0 no effect, 100 complete control)
How it was run: (§3)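 Visual ratings, 0 (no effect) to 100 (complete control), made versus controls after 13–15 d greenhouse. Paddy plants treated at 2-leaf stage; postemergence plants at 1- to 4-leaf stage, 2–18 cm tall.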

[4] = tested on: barnyardgrass; assay: Test B pre-/postemergence herbicide test; assay type: in vivo, Echinochloa crus-galli; conditions: Postemergence, scale 0 (no effect) to 100 (complete control)
How it was run: as §1

[5] = tested on: morningglory; assay: Test B pre-/postemergence herbicide test; assay type: in vivo, Ipomoea coccinea
How it was run: as §1

[6] = tested on: giant foxtail; assay: Test B pre-/postemergence herbicide test; assay type: in vivo, Setaria faberi
How it was run: (§4)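 Response was scored visually 13 to 15 days after treatment against untreated greenhouse controls, 0 meaning no effect and 100 complete control. Formulations (solvent mixture plus surfactant) went onto soil after planting, onto foliage of 1- to 4-leaf plants, and onto 2-leaf plants in a flooded paddy set including rice and barnyardgrass.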

[7] = tested on: large crabgrass; assay: Test B pre-/postemergence herbicide test; assay type: in vivo, Digitaria sanguinalis
How it was run: as §4

[8] = tested on: corn; assay: Test B pre-/postemergence herbicide test; assay type: in vivo, Zea mays
How it was run: as §4

[9] = tested on: Surinam grass; assay: Test B pre-/postemergence herbicide test; assay type: in vivo, Urochloa decumbens
How it was run: as §4

[10] = tested on: velvetleaf; assay: Test B pre-/postemergence herbicide test; assay type: in vivo, Abutilon theophrasti
How it was run: as §4

[11] = tested on: rice; assay: Test B flooded paddy test; assay type: in vivo, Oryza sativa; conditions: 125 g ai/ha, scale 0 to 100 (0 no effect, 100 complete control)
How it was run: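 Postemergence plants were sprayed with formulated test chemicals at 2 to 18 cm height (1- to 4-leaf stage); paddy species were grown to the 2-leaf stage. After 13 to 15 days in a greenhouse, injury was rated visually against untreated controls on a 0–100 scale (0 = no effect, 100 = complete control).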

[12] = tested on: wheat; assay: Test B postemergence herbicide test; assay type: in vivo, Triticum aestivum; set-up: key to Wheat plant response rating: 0 = no effect, 100 = complete control
How it was run: as §2

[13] = tested on: pigweed; assay: Test B pre-/postemergence herbicide test; assay type: in vivo, Amaranthus retroflexus
How it was run: as §4

[14] = tested on: barnyardgrass; assay: Test B flooded paddy test; assay type: in vivo, Echinochloa crus-galli; conditions: 125 g ai/ha, scale 0 to 100 (0 no effect, 100 complete control)
How it was run: as §3

[15] = tested on: blackgrass; assay: Test B postemergence herbicide test; assay type: in vivo, Alopecurus myosuroides
How it was run: as §3

[16] = tested on: lambsquarters; assay: Test B pre-/postemergence herbicide test; assay type: in vivo, Chenopodium album
How it was run: as §4

[17] = tested on: small flower umbrella sedge; assay: Test B flooded paddy test; assay type: in vivo, Cyperus difformis; conditions: 125 g ai/ha, scale 0 to 100 (0 no effect, 100 complete control)
How it was run: as §3

[18] = Postemergence, 500 g ai/ha, scale 0 (no effect) to 100 (complete control)
[19] = postemergence, 125 g ai/ha, scale 0 to 100
[20] = 500 g ai/ha, scale 0 to 100, 0 no effect, 100 complete control, preemergence

SMILES | Cocklebur plant response rating [1, 18] | Cocklebur plant response rating [1, 19] | Oat, Wild plant response rating [2, 18] | Ducksalad plant response rating [3] | Barnyardgrass plant response rating ([4]; 125 g ai/ha) | Barnyardgrass plant response rating ([4]; 500 g ai/ha) | Morningglory plant response rating [5, 18] | Morningglory plant response rating [5, 19] | Foxtail, Giant plant response rating [6, 18] | Foxtail, Giant plant response rating [6, 19] | Crabgrass, Large plant response rating [7, 18] | Crabgrass, Large plant response rating [7, 19] | Corn plant response rating [8, 18] | Corn plant response rating [8, 19] | Surinam Grass plant response rating [9, 18] | Surinam Grass plant response rating [9, 19] | Velvetleaf plant response rating [10, 18] | Velvetleaf plant response rating [10, 19] | Rice plant response rating [11] | Wheat plant response rating [12, 20] | also measured
Cc1nn(C(C)(C)C)nc1C(=O)Nc1cccc(C(=O)N(C)C)n1 [Compound 436] | 10 | 0 | 30 | 0 | 0 | 0 | 0 | 0 | 0 | 0 | 0 | 0 | 10 | 0 | 0 | 0 | 30 | 0 | 0 | 20 | Oat, Wild plant response rating [2, 19]: 10; Wheat plant response rating [12, 18]: 20; Wheat plant response rating [12, 19]: 10; Pigweed plant response rating [13, 18]: 10; Pigweed plant response rating [13, 19]: 0; Barnyardgrass plant response rating [14]: 0; Blackgrass plant response rating [15, 18]: 0; Blackgrass plant response rating [15, 19]: 0; Lambsquarters plant response rating [16, 18]: 0; Lambsquarters plant response rating [16, 19]: 0; Sedge, Umbrella plant response rating [17]: 0
CCNC(=O)c1cccc(NC(=O)c2nn(C(C)(C)C)nc2C)n1 [Compound 437] | 30 | 10 | 30 | 0 | 0 | 30 | 30 | 0 | 30 | 0 | 20 | 0 | 30 | 0 | 20 | 0 | 20 | 0 | 0 | 0 | Wheat plant response rating [12, 18]: 20; Pigweed plant response rating [13, 18]: 30; Pigweed plant response rating [13, 19]: 20; Barnyardgrass plant response rating [14]: 0; Blackgrass plant response rating [15, 18]: 30; Blackgrass plant response rating [15, 19]: 0; Lambsquarters plant response rating [16, 18]: 40; Lambsquarters plant response rating [16, 19]: 20; Sedge, Umbrella plant response rating [17]: 0
C=CCNC(=O)c1cccc(NC(=O)c2nn(C(C)(C)C)nc2C)n1 [Compound 438] | 20 | 20 | 40 | 0 | 0 | 0 | 50 | 40 | 20 | 0 | 0 | 0 | 40 | 30 | 0 | 0 | 30 | 0 | 0 | 0 | Oat, Wild plant response rating [2, 19]: 30; Wheat plant response rating [12, 18]: 30; Wheat plant response rating [12, 19]: 20; Pigweed plant response rating [13, 18]: 30; Pigweed plant response rating [13, 19]: 10; Barnyardgrass plant response rating [14]: 0; Blackgrass plant response rating [15, 18]: 30; Blackgrass plant response rating [15, 19]: 20; Lambsquarters plant response rating [16, 18]: 10; Lambsquarters plant response rating [16, 19]: 10; Sedge, Umbrella plant response rating [17]: 0
